Active and inactive are the calls of the source. The rule behind the calls is not given here.

A word on the IC50: it is the concentration that inhibits the measured activity by half. A word on the inhibition: it is how much of the control response was suppressed. The term Tmax denotes the time from dosing to the highest level. Usually AUC(0-t) stands for the area under the concentration-time curve up to a stated or last time point.

For data set [1], the target named is Oxysterols receptor LXR-alpha (Homo sapiens) (UniProt Q13133). Put plainly: Agonist activity at LXRalpha expressed in african green monkey CV1 cells co-expressing LXRE by luciferase reporter gene assay. As to conditions: CV-1. The format is functional, cell-based. On the technique in general: Reporter assays use an easily measured gene product as a stand-in for the process of interest.
Sequence of Oxysterols receptor LXR-alpha (Homo sapiens) (Q13133 whole entry): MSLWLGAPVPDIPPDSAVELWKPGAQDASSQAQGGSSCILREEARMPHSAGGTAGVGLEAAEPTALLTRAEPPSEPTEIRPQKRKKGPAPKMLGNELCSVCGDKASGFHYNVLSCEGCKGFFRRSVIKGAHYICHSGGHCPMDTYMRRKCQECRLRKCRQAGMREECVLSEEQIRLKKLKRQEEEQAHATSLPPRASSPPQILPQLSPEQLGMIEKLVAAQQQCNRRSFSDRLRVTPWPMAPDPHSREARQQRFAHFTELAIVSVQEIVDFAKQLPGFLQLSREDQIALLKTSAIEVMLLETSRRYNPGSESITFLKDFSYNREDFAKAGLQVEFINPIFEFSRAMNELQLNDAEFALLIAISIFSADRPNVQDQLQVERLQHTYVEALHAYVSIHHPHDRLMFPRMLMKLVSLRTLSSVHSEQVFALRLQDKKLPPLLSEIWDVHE

Data set [2] concerns the target T1, Peroxisome proliferator-activated receptor gamma (Homo sapiens) (UniProt P37231).
T1 sequence (whole entry): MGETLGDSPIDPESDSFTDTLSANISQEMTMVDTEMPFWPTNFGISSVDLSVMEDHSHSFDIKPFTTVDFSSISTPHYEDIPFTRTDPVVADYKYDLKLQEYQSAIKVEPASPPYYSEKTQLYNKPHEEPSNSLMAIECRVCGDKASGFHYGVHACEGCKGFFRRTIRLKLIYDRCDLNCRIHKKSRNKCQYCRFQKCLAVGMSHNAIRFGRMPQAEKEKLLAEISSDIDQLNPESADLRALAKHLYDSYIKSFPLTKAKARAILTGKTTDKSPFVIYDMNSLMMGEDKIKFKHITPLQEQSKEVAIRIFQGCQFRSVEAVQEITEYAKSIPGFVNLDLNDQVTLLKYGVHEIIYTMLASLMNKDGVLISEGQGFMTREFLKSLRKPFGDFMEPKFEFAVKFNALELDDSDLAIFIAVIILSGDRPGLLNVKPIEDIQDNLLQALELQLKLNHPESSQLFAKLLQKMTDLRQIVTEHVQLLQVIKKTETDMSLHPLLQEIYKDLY
Description: Agonist activity at PPARgamma expressed in african green monkey CV1 cells co-expressing PPRE by luciferase reporter gene assay. The format is functional, cell-based. As to conditions: CV-1.

Data set [3] deals with Retinoic acid receptor RXR-alpha (Homo sapiens) (UniProt P19793). Put plainly: Agonist activity at RXRalpha-LBD expressed in african green monkey CV1 cells co-expressing MH100 by luciferase reporter gene assay. The format is functional, cell-based. As to conditions: CV-1.
Sequence of Retinoic acid receptor RXR-alpha (Homo sapiens) (P19793 whole entry, the tested form may be a part): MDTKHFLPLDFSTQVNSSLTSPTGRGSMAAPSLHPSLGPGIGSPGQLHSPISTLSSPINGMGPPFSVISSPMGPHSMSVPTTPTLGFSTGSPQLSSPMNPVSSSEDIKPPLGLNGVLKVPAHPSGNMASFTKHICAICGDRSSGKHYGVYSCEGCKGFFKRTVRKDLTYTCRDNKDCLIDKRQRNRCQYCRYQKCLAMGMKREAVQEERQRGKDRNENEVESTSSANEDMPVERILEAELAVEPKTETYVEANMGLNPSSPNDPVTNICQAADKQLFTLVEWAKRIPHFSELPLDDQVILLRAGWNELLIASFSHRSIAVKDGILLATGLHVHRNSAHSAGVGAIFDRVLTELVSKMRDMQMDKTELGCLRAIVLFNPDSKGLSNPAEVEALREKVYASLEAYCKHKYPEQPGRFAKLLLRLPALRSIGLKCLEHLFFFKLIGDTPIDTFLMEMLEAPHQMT
Data set [4] addresses Estrogen receptor beta (Homo sapiens) (UniProt Q92731). Description: Agonist activity at gal-ERbeta expressed in african green monkey CV1 cells co-expressing MH100 by luciferase reporter gene assay. The format is functional, cell-based. As to conditions: CV-1.
In data set [5] the target is Oxysterols receptor LXR-beta (Homo sapiens) (UniProt P55055). Put plainly: Agonist activity at LXRbeta expressed in african green monkey CV1 cells co-expressing LXRE up to 10 uM by luciferase reporter gene assay relative to control. The format is functional, cell-based. The note with it: CV-1.
Sequence of Oxysterols receptor LXR-beta (Homo sapiens) (P55055 whole entry): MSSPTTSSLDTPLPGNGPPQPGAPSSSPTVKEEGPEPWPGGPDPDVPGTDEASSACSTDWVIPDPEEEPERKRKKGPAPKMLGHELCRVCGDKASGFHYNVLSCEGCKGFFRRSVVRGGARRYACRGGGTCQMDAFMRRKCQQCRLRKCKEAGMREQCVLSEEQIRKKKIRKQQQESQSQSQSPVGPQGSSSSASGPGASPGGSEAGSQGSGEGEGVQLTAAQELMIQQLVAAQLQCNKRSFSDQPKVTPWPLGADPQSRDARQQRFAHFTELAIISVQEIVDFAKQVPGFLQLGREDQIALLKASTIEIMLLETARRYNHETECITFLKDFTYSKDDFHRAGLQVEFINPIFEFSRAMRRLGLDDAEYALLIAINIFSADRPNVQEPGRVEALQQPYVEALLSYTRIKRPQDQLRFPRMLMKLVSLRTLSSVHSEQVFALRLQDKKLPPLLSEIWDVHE
Data set [6] has as its target T2, Androgen receptor (Homo sapiens) (UniProt P10275).
T2 sequence (whole entry): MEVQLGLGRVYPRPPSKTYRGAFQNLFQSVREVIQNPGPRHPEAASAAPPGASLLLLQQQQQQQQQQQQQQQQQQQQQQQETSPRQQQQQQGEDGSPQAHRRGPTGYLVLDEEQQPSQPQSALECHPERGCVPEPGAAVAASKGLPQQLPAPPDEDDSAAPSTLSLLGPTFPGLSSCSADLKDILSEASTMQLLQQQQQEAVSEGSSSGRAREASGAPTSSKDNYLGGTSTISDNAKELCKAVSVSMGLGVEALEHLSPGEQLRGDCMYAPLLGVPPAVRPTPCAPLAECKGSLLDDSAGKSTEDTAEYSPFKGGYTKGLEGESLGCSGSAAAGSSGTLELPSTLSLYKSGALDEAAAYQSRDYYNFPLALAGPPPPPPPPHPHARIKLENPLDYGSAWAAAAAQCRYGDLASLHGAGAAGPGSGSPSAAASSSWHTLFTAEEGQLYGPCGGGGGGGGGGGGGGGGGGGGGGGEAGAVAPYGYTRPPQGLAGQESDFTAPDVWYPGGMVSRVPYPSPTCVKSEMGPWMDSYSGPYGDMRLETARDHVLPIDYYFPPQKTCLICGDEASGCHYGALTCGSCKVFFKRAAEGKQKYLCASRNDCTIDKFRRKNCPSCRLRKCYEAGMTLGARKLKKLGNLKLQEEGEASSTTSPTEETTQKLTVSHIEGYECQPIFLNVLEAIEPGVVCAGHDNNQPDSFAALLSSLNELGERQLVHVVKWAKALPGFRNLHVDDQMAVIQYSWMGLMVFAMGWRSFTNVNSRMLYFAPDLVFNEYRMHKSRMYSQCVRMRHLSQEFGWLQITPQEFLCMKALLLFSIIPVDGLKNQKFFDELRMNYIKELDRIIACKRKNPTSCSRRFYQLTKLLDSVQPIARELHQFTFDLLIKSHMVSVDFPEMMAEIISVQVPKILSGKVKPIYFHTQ
Put plainly: Agonist activity at human gal-AR expressed in african green monkey CV1 cells co-expressing MH100 with pGRIP1 co-factor up to 10 uM by luciferase reporter gene assay relative to control. The format is functional, cell-based. As to conditions: CV-1.

The target in data set [7] is Estrogen receptor (Homo sapiens, UniProt P03372). Put plainly: Antagonist activity at gal-ERalpha expressed in african green monkey CV1 cells co-expressing MH100 by luciferase reporter gene assay. The format is functional, cell-based, CV-1.
Sequence of Estrogen receptor (P03372 whole entry): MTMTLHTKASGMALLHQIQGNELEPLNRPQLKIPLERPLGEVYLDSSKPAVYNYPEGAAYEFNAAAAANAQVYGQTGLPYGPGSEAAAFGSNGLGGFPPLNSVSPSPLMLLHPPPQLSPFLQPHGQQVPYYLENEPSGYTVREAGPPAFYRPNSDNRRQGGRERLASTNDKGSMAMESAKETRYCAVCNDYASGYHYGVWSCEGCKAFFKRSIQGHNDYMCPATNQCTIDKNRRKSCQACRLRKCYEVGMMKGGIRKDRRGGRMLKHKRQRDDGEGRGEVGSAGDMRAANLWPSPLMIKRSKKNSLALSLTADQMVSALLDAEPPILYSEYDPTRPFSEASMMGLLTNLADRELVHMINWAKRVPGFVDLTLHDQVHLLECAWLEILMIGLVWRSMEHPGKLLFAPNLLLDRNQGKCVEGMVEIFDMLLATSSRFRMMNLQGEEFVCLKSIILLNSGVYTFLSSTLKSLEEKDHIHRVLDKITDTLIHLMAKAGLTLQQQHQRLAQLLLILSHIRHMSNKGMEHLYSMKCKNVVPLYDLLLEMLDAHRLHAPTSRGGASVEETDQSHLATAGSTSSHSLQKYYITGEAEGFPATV
The target in data set [8] is Estrogen receptor beta (Homo sapiens) (UniProt Q92731). Description: Antagonist activity at gal-ERbeta expressed in african green monkey CV1 cells co-expressing MH100 by luciferase reporter gene assay. The format is functional, cell-based. As to conditions: CV-1.
Sequence of Estrogen receptor beta (Homo sapiens) (Q92731 whole entry): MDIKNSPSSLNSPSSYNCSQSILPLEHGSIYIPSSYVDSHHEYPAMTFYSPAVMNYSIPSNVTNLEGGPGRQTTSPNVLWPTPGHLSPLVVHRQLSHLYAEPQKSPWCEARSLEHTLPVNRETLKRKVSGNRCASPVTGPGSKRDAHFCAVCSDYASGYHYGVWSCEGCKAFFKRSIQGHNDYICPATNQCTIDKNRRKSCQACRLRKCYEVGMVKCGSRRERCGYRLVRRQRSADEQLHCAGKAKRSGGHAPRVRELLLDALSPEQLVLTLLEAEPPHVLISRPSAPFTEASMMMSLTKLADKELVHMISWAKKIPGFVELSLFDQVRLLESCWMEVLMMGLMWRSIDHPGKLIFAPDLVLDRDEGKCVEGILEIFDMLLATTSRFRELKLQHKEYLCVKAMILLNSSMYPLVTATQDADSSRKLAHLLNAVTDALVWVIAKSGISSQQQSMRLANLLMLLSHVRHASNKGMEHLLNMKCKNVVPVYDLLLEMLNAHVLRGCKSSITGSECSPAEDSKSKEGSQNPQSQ
Data set [9] deals with Glucocorticoid receptor (Homo sapiens, UniProt P04150). Put plainly: Antagonist activity at gal-GR expressed in african green monkey CV1 cells co-expressing MH100 by luciferase reporter gene assay. The format is functional, cell-based, CV-1.
Sequence of Glucocorticoid receptor (P04150 whole entry): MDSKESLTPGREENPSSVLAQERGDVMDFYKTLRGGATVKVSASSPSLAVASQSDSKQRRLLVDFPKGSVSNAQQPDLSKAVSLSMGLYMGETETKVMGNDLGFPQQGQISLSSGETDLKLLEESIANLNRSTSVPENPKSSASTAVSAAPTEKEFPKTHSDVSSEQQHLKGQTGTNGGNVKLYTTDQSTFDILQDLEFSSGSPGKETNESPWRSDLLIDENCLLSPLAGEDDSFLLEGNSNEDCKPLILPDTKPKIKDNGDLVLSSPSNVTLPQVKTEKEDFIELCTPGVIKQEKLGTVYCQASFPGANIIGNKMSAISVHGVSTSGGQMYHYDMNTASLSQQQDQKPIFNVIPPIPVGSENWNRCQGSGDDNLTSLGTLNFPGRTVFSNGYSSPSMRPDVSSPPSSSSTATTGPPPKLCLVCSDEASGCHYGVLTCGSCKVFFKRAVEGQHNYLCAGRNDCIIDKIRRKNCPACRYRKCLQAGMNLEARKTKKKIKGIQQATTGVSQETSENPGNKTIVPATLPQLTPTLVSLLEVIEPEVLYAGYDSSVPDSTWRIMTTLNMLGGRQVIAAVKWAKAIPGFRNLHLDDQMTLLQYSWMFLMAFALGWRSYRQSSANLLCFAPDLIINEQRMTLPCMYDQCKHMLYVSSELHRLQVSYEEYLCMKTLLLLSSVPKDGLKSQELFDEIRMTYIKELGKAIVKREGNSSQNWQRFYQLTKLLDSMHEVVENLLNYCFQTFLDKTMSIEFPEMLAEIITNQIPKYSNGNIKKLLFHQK
Data set [10] deals with Mineralocorticoid receptor (Homo sapiens, UniProt P08235). Put plainly: Antagonist activity at gal-MR expressed in african green monkey CV1 cells co-expressing MH100 by luciferase reporter gene assay. The format is functional, cell-based, CV-1.
Sequence of Mineralocorticoid receptor (P08235 whole entry): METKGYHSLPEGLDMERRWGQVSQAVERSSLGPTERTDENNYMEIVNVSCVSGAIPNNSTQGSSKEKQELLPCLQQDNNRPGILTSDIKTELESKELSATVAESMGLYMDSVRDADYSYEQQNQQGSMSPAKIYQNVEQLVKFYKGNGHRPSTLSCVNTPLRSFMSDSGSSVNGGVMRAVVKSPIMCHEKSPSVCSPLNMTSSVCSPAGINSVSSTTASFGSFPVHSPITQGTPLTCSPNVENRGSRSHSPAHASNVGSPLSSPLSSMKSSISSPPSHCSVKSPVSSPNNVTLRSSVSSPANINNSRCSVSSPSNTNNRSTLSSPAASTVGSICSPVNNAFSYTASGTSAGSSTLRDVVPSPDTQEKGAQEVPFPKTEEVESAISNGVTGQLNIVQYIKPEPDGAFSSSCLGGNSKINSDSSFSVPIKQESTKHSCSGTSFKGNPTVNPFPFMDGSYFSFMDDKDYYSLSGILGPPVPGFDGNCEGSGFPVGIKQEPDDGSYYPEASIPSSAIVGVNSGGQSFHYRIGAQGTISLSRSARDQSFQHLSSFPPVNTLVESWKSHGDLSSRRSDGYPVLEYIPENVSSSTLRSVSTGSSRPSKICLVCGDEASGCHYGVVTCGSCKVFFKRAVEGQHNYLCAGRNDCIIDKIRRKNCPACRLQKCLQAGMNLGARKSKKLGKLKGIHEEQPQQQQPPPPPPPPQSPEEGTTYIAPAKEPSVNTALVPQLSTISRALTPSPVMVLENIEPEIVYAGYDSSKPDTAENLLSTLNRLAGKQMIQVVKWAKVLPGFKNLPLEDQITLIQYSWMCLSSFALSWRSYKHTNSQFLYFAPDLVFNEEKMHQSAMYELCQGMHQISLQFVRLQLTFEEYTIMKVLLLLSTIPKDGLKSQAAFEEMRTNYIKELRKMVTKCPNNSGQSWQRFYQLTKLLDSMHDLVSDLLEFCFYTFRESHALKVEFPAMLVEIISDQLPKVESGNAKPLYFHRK
For data set [11], the target named is Progesterone receptor (Homo sapiens, UniProt P06401). Put plainly: Antagonist activity at gal-PR expressed in african green monkey CV1 cells co-expressing MH100 by luciferase reporter gene assay. The format is functional, cell-based, CV-1.
The target in data set [12] is T2, Androgen receptor (Homo sapiens). Description: Antagonist activity at gal-AR expressed in african green monkey CV1 cells co-expressing MH100 with GRIP1 co-factor at 10 uM by luciferase reporter gene assay. The note with it: CV-1. The format is functional, cell-based.
Data set [13] in a line: Tmax in CD rat at 3 mg/kg, po. The format is ADME, organism-based. Further details: dose 3 mg/kg, route oral. As to conditions: in vivo.
Data set [14] is described as follows: AUC (0 to t) in CD rat at 3 mg/kg, iv. The format is ADME, organism-based. Also noted: dose 3 mg/kg, route intravenous. The note with it: plasma.
Data set [15] in a line: AUC (0 to t) in CD rat at 3 mg/kg, po. The format is ADME, organism-based. Also noted: dose 3 mg/kg, route oral. As to conditions: plasma.
In data set [16] the test system is Mus musculus. Put plainly: Reduction of plasma total cholesterol level in C57BL/6 mouse at 10 mg/kg, po administered for 7 days measured after 3 hrs. As to conditions: in vivo. The format is ADME, organism-based. Further details: dose 10 mg/kg, route oral.
For data set [17], the system named is Mus musculus. Put plainly: Reduction of plasma triglyceride level in western diet-induced hyperlipidemia LDLR knockout mouse model at 1 mg/kg, po administered for 6 weeks. The format is functional. Also noted: scale not given: the % may be the effect or the level left.
For data set [18], the system named is Mus musculus. Put plainly: Reduction of plasma total cholesterol level in western diet-induced hyperlipidemia LDLR knockout mouse model at 1 mg/kg, po administered for 6 weeks. The format is functional. Further details: scale not given: the % may be the effect or the level left.
Data set [19] concerns Mus musculus. Description: Reduction of plasma total cholesterol level in western diet-induced hyperlipidemia LDLR knockout mouse model at 3 mg/kg, po administered for 6 weeks. The format is functional. Further details: scale not given: the % may be the effect or the level left.

Consider `CC(C)OC(=O)C1=CN(C(=O)c2ccc(F)c(F)c2)CC(C)(C)c2c1[nH]c1ccccc21` [TUROFEXORATE ISOPROPYL], for which the result in [1], in data set [2], in data set [3], in [4], in data set [5] and in [6] was inactive. The outcome in [8] was inactive. Also, the IC50 in data set [7], in [9], in data set [10] and in data set [11] was 10 µM in each case. Besides, the inhibition in data set [12] was determined as 26%. The Tmax in data set [13] was found to be 10 h. Besides, the AUC(0-t) was 19.1 µM·h in data set [14] and 7 µM·h in data set [15]. Further, the Activity was determined as 78.1 mg/dL in data set [16], 19% in [17], 23% in data set [18] and 50% in [19].

Source of the values: ChEMBL document CHEMBL1140941 (J Med Chem, 2009).
